Source: US6410530B1, “Substituted 1,2,3,4-tetrahydronaphthalene derivatives” (AstraZeneca AB, priority 1996, dated 2002)

| melting point | SMILES |
| --- | --- |
| 117 °C (dec.) | CN1CCN(c2cccc3c2C[C@H](NC(=O)c2cccc(O)c2)CC3)CC1 [Example 88, (R)-N-[8-(4-Methylpiperazin-1-yl)-1,2,3,4-tetrahydro-2-naphthyl]-3-hydroxybenzamide] |
| 190 to 191 °C | CN1CCN(c2cccc3c2C[C@H](NC(=O)c2ccc(N4CCSCC4)cc2)CC3)CC1 [Example 125, (R)-N-[8-(4-Methylpiperazin-1-yl)-1,2,3,4-tetrahydro-2-naphthyl]-4-thiomorpholinobenzamide] |
| 245 to 247 °C | CN1CCN(c2cccc3c2C[C@H](NC(=O)c2ccc(-n4cccc4)cc2)CC3)CC1 [Example 78, (R)-N-[8-(4-Methylpiperazin-1-yl)-1,2,3,4-tetrahydro-2-naphthyl]-4-(1H-pyrrol-1-yl)benzamide] |
| 136 to 137 °C | CN1CCN(c2cccc3c2C[C@H](NC(=O)c2cccc(Oc4ccccc4)c2)CC3)CC1 [Example 87, (R)-N-[8-(4-Methylpiperazin-1-yl)-1,2,3,4-tetrahydro-2-naphthyl]-3-phenoxybenzamide] |

The next lines start with the molecule.

| SMILES | melting point |
| --- | --- |
| CCCCOc1ccc(C(=O)N[C@@H]2CCc3cccc(C4CCN(C)CC4)c3C2)cc1 [Example 100, (R)-N-[8-(1-Methylpiperidin-4-yl)-1,2,3,4-tetrahydro-2-naphthyl]-4-butoxybenzamide] | 162 to 164 °C |
| CN1CCN(c2cccc3c2C[C@H](NC(=O)c2ccc(Cc4ccccc4)cc2)CC3)CC1 [Example 75, (R)-N-[8-(4-Methylpiperazin-1-yl)-1,2,3,4-tetrahydro-2-naphthyl]-4-benzylbenzamide] | 191 to 192 °C |
| COc1ccc(C(=O)N[C@@H]2CCc3cccc(N4CCN(C)CC4)c3C2)cc1 [Example 49, (R)-N-[8-(4-Methylpiperazin-1-yl)-1,2,3,4-tetrahydro-2-naphthyl]-4-methoxybenzamide] | 186 to 187 °C |
| CCCN1CCN(c2cccc3c2C[C@H](NC(C)=O)CC3)CC1 [Example 24, (R)-N-[8-(4-Propylpiperazin-1-yl)-1,2,3,4-tetrahydro-2-naphthyl]acetamide] | 139 to 140 °C |
| CN1CCN(c2cccc3c2C[C@H](NS(C)(=O)=O)CC3)CC1 | 135 to 137 °C |
| O=C(N[C@@H]1CCc2cccc(N3CCNCC3)c2C1)c1ccc(N2CCOCC2)cc1 [Example 53, (R)-N-[8-(Piperazin-1-yl)-1,2,3,4-tetrahydro-2-naphthyl]-4-morpholinobenzamide] | 202 to 203 °C |
| CN1CCN(c2cccc3c2C[C@H](NC(=O)c2ccc(C(F)(F)F)cc2)CC3)CC1 [Example 65, (R)-N-[8-(4-Methylpiperazin-1-yl)-1,2,3,4-tetrahydro-2-naphthyl]-4-trifluoromethylbenzamide] | 203 to 204 °C |
